What follows are molecules tested against histamine H4 receptor (Homo sapiens, UniProt Q9H3N8) (assay: In vitro histamine H4 potency in FLIPR (Ca2+ flux, HEK-293 cells coexpressing Gαqi5)). Conditions: Kb for antagonists and inverse agonists, EC50 for partial agonists.
Type: cell-based
Design: expressed in transfected cells
Excerpt: There are many methods available to show the effectiveness of compounds as histamine H4 receptor ligands. Histamine H4 receptors from mammalian species have been cloned. Methods to clone, express, and assess the potency and functional activity of such cloned genes are well known to those skilled in the art of molecular biology. […] Before testing, cells are loaded with a Ca^+2 sensitive fluorescent dye, in this case Fluo-4. In the case of partial agonist or agonist ligands, addition of compound to the cells leads to the increase in intracellular Ca^+2 which is detected by FLIPR (Fluorescence Imaging Plate Reader; Molecular Devices, Sunnyvale, Calif.) technology. […] The fluorescence intensities measured before addition of the test compound are subtracted from the fluorescence intensities at later time points. Peak response values determined at each concentration of ligand are expressed as a percentage of the response obtained with the full agonist histamine. Concentration versus response data are analyzed to obtain compound potency as Kb values for antagonists and inverse agonists and as EC50 values for partial agonists.

histamine H4 receptor, sequence (Q9H3N8 whole entry): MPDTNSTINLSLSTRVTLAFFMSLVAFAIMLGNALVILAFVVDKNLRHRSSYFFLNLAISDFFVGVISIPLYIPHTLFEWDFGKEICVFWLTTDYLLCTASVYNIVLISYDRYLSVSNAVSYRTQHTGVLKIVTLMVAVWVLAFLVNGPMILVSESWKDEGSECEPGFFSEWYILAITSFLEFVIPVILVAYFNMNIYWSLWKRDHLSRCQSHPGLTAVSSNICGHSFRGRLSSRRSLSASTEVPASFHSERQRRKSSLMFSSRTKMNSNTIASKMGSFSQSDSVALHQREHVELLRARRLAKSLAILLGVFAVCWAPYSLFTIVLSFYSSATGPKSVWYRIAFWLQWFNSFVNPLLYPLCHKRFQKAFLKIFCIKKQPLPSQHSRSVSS

Molecule	Potency
CN1CCN(c2nc(N)nc3c2CCOc2ccccc2-3)CC1 [Example 29, 4-(4-Methyl-piperazin-1-yl)-5,6-dihydro-7-oxa-1,3-diaza-dibenzo[a,c]cyclohepten-2-ylamine]	39 nM
CNC1CN(c2nc(N)nc3c2CCCc2ccc(F)cc2-3)C1 [Example 12, 10-Fluoro-4-(3-methylamino-azetidin-1-yl)-6,7-dihydro-5H-benzo[6,7]cyclohepta[1,2-d]pyrimidin-2-ylamine]	7.4 nM
CN[C@@H]1CCN(c2nc(N)nc3c2CCCCCc2ccccc2-3)C1 [Example 23, 4-(3-(R)-Methylamino-pyrrolidin-1-yl)-6,7,8,9-tetrahydro-5H-1,3-diaza-dibenzo[a,c]cyclononen-2-ylamine]	56 nM
CN[C@@H]1CCN(c2nc(N)nc3c2CCOc2ccc(OC)cc2-3)C1 [Example 47, 10-methoxy-4-[(3R)-3-(methylamino)pyrrolidin-1-yl]-5,6-dihydro[1]benzoxepino[5,4-d]pyrimidin-2-amine]	912 nM
Nc1nc2c(c(N3CCNCC3)n1)CCSc1ccccc1-2 [Example 36, 4-Piperazin-1-yl-5,6-dihydro-7-thia-1,3-diaza-dibenzo[a,c]cyclohepten-2-ylamine]	39 nM
CN1CCN(c2nc(N)nc3c2OCc2ccccc2-3)CC1 [Example 41, 1-(4-Methyl-piperazin-1-yl)-9H-10-oxa-2,4-diaza-phenanthren-3-ylamine]	50 nM
Nc1nc2c(c(N3CC4CCCNC4C3)n1)CCOc1cc(-c3ccccc3)ccc1-2 (centres unmarked) [Example 105, 4-Octahydro-pyrrolo[3,4-b]pyridin-6-yl-9-phenyl-5,6-dihydro-7-oxa-1,3-diaza-dibenzo[a,c]cyclohepten-2-ylamine]	83 nM
Nc1nc2c(c(N3CCNCC3)n1)COc1ccccc1-2 [Example 10, 1-Piperazin-1-yl-10H-9-oxa-2,4-diaza-phenanthren-3-ylamine]	10 nM
CNCC(=O)Nc1nc2c(c(N3CCNCC3)n1)CCCc1ccccc1-2 [Example 88, 2-Methylamino-N-(4-piperazin-1-yl-6,7-dihydro-5H-benzo[6,7]cyclohepta[1,2-d]pyrimidin-2-yl)-acetamide]	209 nM
Nc1nc2c(c(N3CCC4(CCCCN4)CC3)n1)CCCc1ccccc1-2 [Example 75, 4-(1,9-Diaza-spiro[5.5]undec-9-yl)-6,7-dihydro-5H-benzo[6,7]cyclohepta[1,2-d]pyrimidin-2-ylamine]	4898 nM
CN[C@@H]1CCN(c2nc(N)nc3c2CCOc2ccc(C)cc2-3)C1 [Example 46, 10-methyl-4-[(3R)-3-(methylamino)pyrrolidin-1-yl]-5,6-dihydro[1]benzoxepino[5,4-d]pyrimidin-2-amine]	100 nM
Nc1nc(NC[C@H]2CCN2)c2c(n1)-c1ccccc1CCC2 [Example 64, N^4-[(2R)-azetidin-2-ylmethyl]-6,7-dihydro-5H-benzo[6,7]cyclohepta[1,2-d]pyrimidine-2,4-diamine]	1549 nM
4-(4-Dimethylamino-piperidin-1-yl)-6,7-dihydro-5H-benzo[6,7]cyclohepta[1,2-d]pyrimidin-2-ylamine [Example 114]	17 nM
CN[C@@H]1CCN(c2nc(N)nc3c2CCc2ccccc2-3)C1 [Example 39, 4-(3-(R)-Methylamino-pyrrolidin-1-yl)-5,6-dihydro-benzo[h]quinazolin-2-ylamine]	22 nM
Nc1nc(NCCC2CCN2)c2c(n1)-c1ccccc1CCC2 (centres unmarked) [Example 63, N^4-(2-azetidin-2-ylethyl)-6,7-dihydro-5H-benzo[6,7]cyclohepta[1,2-d]pyrimidine-2,4-diamine]	269 nM
CN[C@H]1CCN(c2nc(N)nc3c2CCCc2ccccc2-3)C1 [Example 14, 4-[(3S)-3-Methylamino-pyrrolidin-1-yl]-6,7-dihydro-5H-benzo[6,7]cyclohepta[1,2-d]pyrimidin-2-ylamine]	331 nM
CN[C@@H]1CCN(c2ncnc3c2CCCc2ccccc2-3)C1 [Example 124, 4-(3-(R)-Methylamino-pyrrolidin-1-yl)-6,7-dihydro-5H-benzo[6,7]cyclohepta[1,2-d]pyrimidine]	1413 nM
Nc1nc2c(c(N3CCC(N4CCCCC4)C3)n1)CCCc1ccccc1-2 (centres unmarked) [Example 18, 4-(3-Piperidin-1-yl-pyrrolidin-1-yl)-6,7-dihydro-5H-benzo[6,7]cyclohepta[1,2-d]pyrimidin-2-ylamine]	25704 nM
Nc1nc2c(c(N3CCC(N)CC3)n1)CCCc1ccccc1-2 [Example 62, 4-(4-aminopiperidin-1-yl)-6,7-dihydro-5H-benzo[6,7]cyclohepta[1,2-d]pyrimidin-2-amine]	389 nM
Nc1nc2c(c(N3CC4(CCCCN4)C3)n1)CCCc1ccccc1-2 [Example 78, 4-(2,5-Diaza-spiro[3.5]non-2-yl)-6,7-dihydro-5H-benzo[6,7]cyclohepta[1,2-d]pyrimidin-2-ylamine]	891 nM
Nc1nc2c(c(N3CC[C@@H](N)C3)n1)CCCCCc1ccccc1-2 [Example 24, 4-((R)-3-Amino-pyrrolidin-1-yl)-6,7,8,9-tetrahydro-5H-1,3-diaza-dibenzo[a,c]cyclononen-2-ylamine]	148 nM
Nc1nc2c(c(N3CCNCC3)n1)CCCCc1ccccc1-2 [Example 20, 4-Piperazin-1-yl-5,6,7,8-tetrahydro-1,3-diaza-dibenzo[a,c]cycloocten-2-ylamine]	32 nM
Nc1nc2c(c(N3CCNCC3)n1)CCc1ccccc1-2 [Example 44, 4-Piperazin-1-yl-5,6-dihydro-benzo[h]quinazolin-2-ylamine]	24 nM
CNc1ccc2c(c1)-c1nc(N)nc(N3C[C@H]4CCCN[C@H]4C3)c1CCC2 [Example 131, 10-N-methyl-4-[(4aR,7aR)-octahydro-6H-pyrrolo[3,4-b]pyridin-6-yl]-6,7-dihydro-5H-benzo[6,7]cyclohepta[1,2-d]pyrimidine-2,10-diamine]	113 nM
CN[C@@H]1CCN(c2nc(N)nc3c2CC(C)c2ccccc2-3)C1 (stereo partly drawn) [Example 1, 6-Methyl-4-[(3R)-3-methylamino-pyrrolidin-1-yl]-5,6-dihydro-benzo[h]quinazolin-2-ylamine]	18 nM
[1-(6,7-Dihydro-5H-benzo[6,7]cyclohepta[1,2-d]pyrimidin-4-yl)-azetidin-3-yl]-amine [Example 125]	631 nM
Nc1nc2c(c(N3CC4CNCC3C4)n1)CCCc1ccccc1-2 (centres unmarked) [Example 81, 4-(3,6-Diaza-bicyclo[3.2.1]oct-6-yl)-6,7-dihydro-5H-benzo[6,7]cyclohepta[1,2-d]pyrimidin-2-ylamine]	4169 nM
CN[C@@H]1CCN(c2nc(N)nc3c2CCSc2ccccc2-3)C1 [Example 34, 4-(3-(R)-Methylamino-pyrrolidin-1-yl)-5,6-dihydro-7-thia-1,3-diaza-dibenzo[a,c]cyclohepten-2-ylamine]	4.2 nM
CN[C@@H]1CCN(c2nc(N)nc3c2CCOc2cc(I)ccc2-3)C1 [Example 100, 9-Iodo-4-((R)-3-methylamino-pyrrolidin-1-yl)-5,6-dihydro-7-oxa-1,3-diaza-dibenzo[a,c]cyclohepten-2-ylamine]	120 nM
